# Source: patent US20160177395A1, “BIOMARKERS FOR THE PREDICTION OF RENAL INJURY” (priority 2007, published 2016)
# Values joined by “and” are separate entries in the source; they are usually repeats but may differ in a detail not shown here. Equal entries are not always repeated.
# System: kidney tissues of treated or untreated rats
# Experiment: Real-time qRT-PCR of marker transcripts in kidney tissue panel, discovery stage (Table 22)
# Format: in vivo, rat
# Conditions: listed as Dox; for normalized Real Time PCR MMU09507_DB81_seg15: kidney; for H33998_DB71_seg19 normalized Real Time PCR / MUSCYCG1R_DB81_seg15-17 normalized Real Time PCR / RATLRFI_DB71_seg9 normalized Real Time PCR / RATRAB13X_DB71_seg11-13 normalized Real Time PCR / RNU24174_DB71_seg8 normalized Real Time PCR / W41270_DB81_seg11 normalized Real Time PCR / W64472_DB81_seg2 normalized Real Time PCR / W83813_DB81_seg27 normalized Real Time PCR / AA686189_DB71_seg6 normalized Real Time PCR expression / AI045075_DB71_seg6 normalized Real Time PCR expression / AI454051_DB71_seg0 normalized Real Time PCR expression / H31045_DB71_seg5 normalized Real Time PCR expression: rat kidney
# Experimental: Before RT preparation the RNA was treated with DNA-free (Ambion, cat. No. AM1906) DNase treatment and removal—according to manufacturer protocol. DNase procedure was repeated until no DNA is detected in a PCR reaction using the RNA samples.
# The mixture is then incubated for 5 min at 65° C. and then quickly chilled on ice. Thereafter, 20 μl of 5× SuperscriptII first strand buffer (Invitrogen, Cat. No. Y00146), 9.6 μl 0.1M DTT (Invitrogen, Cat. No. Y00147) and 160 units RNasin (Promega, Cat. No. N251A) are added, and the mixture is incubated for 10 min at 25° C., followed by further incubation at 42° C. for 2 min. […] The resulting cDNA is diluted 1:20 in TE buffer (10 mM Tris pH=8, 1 mM EDTA pH=8).
# cDNA (5 μl), prepared as described above, is used as a template in Real-Time PCR reactions using the SYBR Green I assay (PE Applied Biosystem) with specific primers in 100 nM concentration if not indicated otherwise and UNG Enzyme (Eurogentech or equal) Amplification is effected as follows: 50° C. for 2 min, 95° C. for 10 min, and then 40 cycles of 95° C. for 15 sec, followed by 60° C. for 1 min (if not indicated otherwise). Amplification step is followed by dissociation step. Detection is performed by using the PE Applied Biosystem SDS 7000. The cycle in which the reactions achieved a threshold level (Ct) of fluorescence is registered and is used to calculate the relative transcript quantity in the RT reactions. Non-detected samples are assigned Ct value of 41 and are calculated accordingly. The relative quantity is calculated using the equation Q=efficiencŷ-Ct. The efficiency of the PCR reaction is calculated from a standard curve, created by using serial dilutions of several reverse transcription (RT) reactions. To minimize inherent differences in the RT reaction, the resulting relative quantities are normalized to normalization factor calculated as follows: […]
# The relative quantity (Q) of each housekeeping gene in each sample is calculated as described above. In order to calculate the “relative Q relative to MED” each Q for each HSKP gene is divided by the median quantity of this gene in all panel samples. To finally achieve the normalization factor of each sample the geometric mean of all four “relative Q relative to MED” was calculated. The normalization factor was then used for further calculations.
# The markers of the present invention were tested with regard to their expression in a panel of kidney tissues samples from treated and control rats. Unless otherwise noted, all experimental data relates to the novel polynucleotides and proteins of the present invention, named according to the segment being tested (as expression was tested through RT-PCR as described). Tests were then performed as described in the “Materials and Experimental Procedures” section above.
# The qRT-PCR measurements were normalized according to each samples normalization factor as described in “RT Preparation and Real-Time qRT-PCR Analysis” and further multiplied by a constant factor for ease of viewing.
# [1] = day1, individual animals (F and M)
# [2] = day5, individual animals (F and M)
# [3] = day28, individual animals (F and M)
structure (smiles),measurement,setting,value
COc1cccc2c1C(=O)c1c(O)c3c(c(O)c1C2=O)C[C@@](O)(C(=O)CO)C[C@@H]3O[C@H]1C[C@H](N)[C@H](O)[C@H](C)O1 [Doxorubicin],normalized Real Time PCR MMU09507_DB81_seg15,"female rats, day1",0.48 and 0.52 and 0.93
same,normalized Real Time PCR MMU09507_DB81_seg15,"female rats, day5",2.07 and 1.46 and 1.82
same,normalized Real Time PCR MMU09507_DB81_seg15,"female rats, day28",4.47 and 2.99 and 2.89
same,normalized Real Time PCR MMU09507_DB81_seg15,"male rats, day1",0.74 and 0.71 and 0.59
same,normalized Real Time PCR MMU09507_DB81_seg15,"male rats, day5",1.74 and 1.67
same,normalized Real Time PCR MMU09507_DB81_seg15,"male rats, day28",3.04 and 2.93 and 2.13
same,H33998_DB71_seg19 normalized Real Time PCR,[1],1.25 and 1.34 and 2.14 and 0.97 and 1.07 and 2.75
same,MUSCYCG1R_DB81_seg15-17 normalized Real Time PCR,[1],1.66 and 1.12 and 1.36 and 0.56 and 0.64 and 0.66
same,RATLRFI_DB71_seg9 normalized Real Time PCR,[1],0.25 and 0.21 and 0.31 and 0.46 and 0.48 and 0.24
same,RATRAB13X_DB71_seg11-13 normalized Real Time PCR,[1],1.1 and 0.9 and 1 and 0.88 and 1.09 and 0.86
same,RNU24174_DB71_seg8 normalized Real Time PCR,[1],0.29 and 0.35 and 0.31 and 0.48 and 0.49 and 0.36
same,W41270_DB81_seg11 normalized Real Time PCR,[1],2.24 and 1.2 and 1.56 and 1.74 and 0.95 and 0.91
same,W64472_DB81_seg2 normalized Real Time PCR,[1],1.58 and 1.09 and 1.15 and 0.86 and 0.77 and 0.56
same,W83813_DB81_seg27 normalized Real Time PCR,[1],2.9 and 1.56 and 2 and 0.68 and 0.78 and 0.64
same,AA686189_DB71_seg6 normalized Real Time PCR expression,"day1, individual animals",0.59 and 0.49 and 0.39 and 0.78 and 0.4 and 0.26
same,AI045075_DB71_seg6 normalized Real Time PCR expression,"day1, individual animals",1.12 and 1.21 and 0.78 and 0.61 and 0.64 and 3.12
same,AI454051_DB71_seg0 normalized Real Time PCR expression,"day1, individual animals",1.2 and 1.05 and 1.54 and 0.8 (2×) and 1.03
same,H31045_DB71_seg5 normalized Real Time PCR expression,"day1, individual animals",1.15 and 0.3 and 1.95 and 0.23 and 0.32 and 0.75
same,H33998_DB71_seg19 normalized Real Time PCR,[2],2.39 and 1.29 and 3.68 and 1.19 and 1.37
same,MUSCYCG1R_DB81_seg15-17 normalized Real Time PCR,[2],1.51 and 1.97 and 3.17 and 1.65 and 2
same,RATLRFI_DB71_seg9 normalized Real Time PCR,[2],0.46 and 0.29 and 0.18 and 0.47 and 0.25
same,RATRAB13X_DB71_seg11-13 normalized Real Time PCR,[2],1.17 and 1.16 and 0.94 and 0.7 and 0.83
same,RNU24174_DB71_seg8 normalized Real Time PCR,[2],0.83 and 0.59 and 0.63 and 1.08 and 0.87
same,W41270_DB81_seg11 normalized Real Time PCR,[2],1.71 and 1.37 and 2.13 and 1.64 and 1.35
same,W64472_DB81_seg2 normalized Real Time PCR,[2],1.97 and 1.36 and 2.36 and 3 and 2.54
same,W83813_DB81_seg27 normalized Real Time PCR,[2],2.28 and 1.99 and 2.9 and 1.3 and 1.41
same,AA686189_DB71_seg6 normalized Real Time PCR expression,"day5, individual animals",1.2 and 0.6 and 0.51 and 0.48 and 0.38
same,AI045075_DB71_seg6 normalized Real Time PCR expression,"day5, individual animals",0.93 (2×) and 2.05 and 0.76 and 0.57
same,AI454051_DB71_seg0 normalized Real Time PCR expression,"day5, individual animals",1.17 and 1.35 and 1.44 and 0.3 and 0.95
same,H31045_DB71_seg5 normalized Real Time PCR expression,"day5, individual animals",1.86 and 1.19 and 0.52 and 0.35 and 1.41
same,H33998_DB71_seg19 normalized Real Time PCR,[3],0.48 and 0.58 and 0.96 and 0.64 and 0.44 and 0.54
same,MUSCYCG1R_DB81_seg15-17 normalized Real Time PCR,[3],1.07 and 1.52 and 1.26 and 0.99 and 0.98 and 1.28
same,RATLRFI_DB71_seg9 normalized Real Time PCR,[3],0.72 and 0.4 and 1.47 and 8.34 and 0.53 and 1.08
